According to patent US9988400B2 (Genentech, Inc., priority 2013, dated 2018):

What follows are compounds tested against T1, HEK cells stably transfected with tetracycline inducible hNR1 and hNR2A (Homo sapiens, UniProt Q05586+Q12879) (assay: Assay 1: Cell-Based Assay, cytosolic calcium response to positive allosteric modulators (with 30 μM glycine and 300 nM L-glutamate, EC30)). Details: Table 3; cytosolic calcium response, with 30 μM glycine and 300 nM L-glutamate (EC30); — = no plateau was reached.
T1 construct: expressed in transfected cells; host or cells: HEK cells, stably transfected, tetracycline/doxycycline inducible
Outline: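 Cells induced 24 h with 7.5 μg mL^−1 doxycycline plus 500 μM (+)-ketamine, loaded 60 min at 37 °C with calcium dye in Mg-free HBSS (1.8 mM Ca, probenecid, 10 μM (+)-ketamine, pH 7.15). Peak RFU over 5 min after compound addition, scaled to 100 μM L-glutamate (100%) and 0 μM (0%); four-parameter Hill fit for EC50, max % if no plateau.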

T1 sequence (Q12879 23-1464, other chains not shown): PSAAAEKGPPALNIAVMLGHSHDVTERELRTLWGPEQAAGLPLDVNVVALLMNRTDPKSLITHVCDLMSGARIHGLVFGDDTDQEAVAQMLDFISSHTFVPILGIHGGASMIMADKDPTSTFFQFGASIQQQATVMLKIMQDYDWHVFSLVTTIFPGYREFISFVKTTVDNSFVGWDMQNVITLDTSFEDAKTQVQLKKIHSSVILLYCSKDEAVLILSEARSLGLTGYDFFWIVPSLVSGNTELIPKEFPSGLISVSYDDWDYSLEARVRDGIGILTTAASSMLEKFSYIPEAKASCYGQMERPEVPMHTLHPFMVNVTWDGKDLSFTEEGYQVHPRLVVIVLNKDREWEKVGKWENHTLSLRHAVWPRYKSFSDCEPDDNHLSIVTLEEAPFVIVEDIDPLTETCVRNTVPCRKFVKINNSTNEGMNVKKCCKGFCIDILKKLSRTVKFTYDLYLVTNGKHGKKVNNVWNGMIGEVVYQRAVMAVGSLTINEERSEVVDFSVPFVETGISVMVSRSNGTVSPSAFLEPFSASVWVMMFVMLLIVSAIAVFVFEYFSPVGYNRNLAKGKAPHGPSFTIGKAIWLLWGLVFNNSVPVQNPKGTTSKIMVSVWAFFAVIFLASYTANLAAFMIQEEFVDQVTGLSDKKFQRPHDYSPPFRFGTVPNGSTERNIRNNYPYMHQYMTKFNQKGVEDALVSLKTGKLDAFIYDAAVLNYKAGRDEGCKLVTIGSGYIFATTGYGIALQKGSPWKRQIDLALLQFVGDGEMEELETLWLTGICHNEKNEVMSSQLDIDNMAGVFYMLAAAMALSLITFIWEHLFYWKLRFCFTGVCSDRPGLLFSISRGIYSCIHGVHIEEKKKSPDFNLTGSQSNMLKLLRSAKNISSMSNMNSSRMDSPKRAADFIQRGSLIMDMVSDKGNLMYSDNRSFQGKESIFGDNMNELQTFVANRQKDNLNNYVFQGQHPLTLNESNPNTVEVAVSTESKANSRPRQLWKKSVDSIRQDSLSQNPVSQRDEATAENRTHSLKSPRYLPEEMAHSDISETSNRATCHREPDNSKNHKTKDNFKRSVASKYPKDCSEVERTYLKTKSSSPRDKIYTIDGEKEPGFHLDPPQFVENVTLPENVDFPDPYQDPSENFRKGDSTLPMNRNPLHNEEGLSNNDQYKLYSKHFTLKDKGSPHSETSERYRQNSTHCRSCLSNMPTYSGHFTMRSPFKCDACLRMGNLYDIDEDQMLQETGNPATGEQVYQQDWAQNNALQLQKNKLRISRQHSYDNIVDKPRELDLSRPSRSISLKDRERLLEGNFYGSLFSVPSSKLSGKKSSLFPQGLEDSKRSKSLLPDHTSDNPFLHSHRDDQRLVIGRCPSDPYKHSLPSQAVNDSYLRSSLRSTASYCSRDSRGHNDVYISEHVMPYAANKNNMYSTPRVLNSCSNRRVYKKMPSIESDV

First: CCNC(=O)c1c(C)sc2nc(Cn3nc(Cl)cc3C(F)(F)F)cc(=O)n12 [compound 29, 7-[[3-chloro-5-(trifluoromethyl)pyrazol-1-yl]methyl]-N-ethyl-2-methyl-5-oxo-thiazolo[3,2-a]pyrimidine-3-carboxamide]
Second: CCNC(=O)c1c(C(F)(F)F)sc2nc(Cn3nc(Cl)cc3C(F)(F)F)cc(=O)n12 [compound 44, 7-[[3-chloro-5-(trifluoromethyl)pyrazol-1-yl]methyl]-N-ethyl-5-oxo-2-(trifluoromethyl)thiazolo[3,2-a]pyrimidine-3-carboxamide]
The EC50 of the first is 2.6-fold higher: 1.76 µM for the first, 0.685 µM for the second. The second is the more potent here.

First: CNC(=O)c1c(C)sc2nc(Cc3cccc(C(F)F)c3F)c(F)c(=O)n12 [compound 30, 7-[[3-(difluoromethyl)-2-fluoro-phenyl]methyl]-6-fluoro-N,2-dimethyl-5-oxo-thiazolo[3,2-a]pyrimidine-3-carboxamide]
Second: CCNC(=O)c1c(C)sc2nc(Cc3cccc(C(F)F)c3F)c(F)c(=O)n12 [compound 31, 7-[[3-(difluoromethyl)-2-fluoro-phenyl]methyl]-N-ethyl-6-fluoro-2-methyl-5-oxo-thiazolo[3,2-a]pyrimidine-3-carboxamide]
The EC50 of the first is 1.6-fold lower: 2.57 µM for the first, 4.17 µM for the second. The first is the more potent here.

Compared with `CNC(=O)c1c(C)sc2nc(Cc3ccc4c(c3)CC4)cc(=O)n12` [compound 32, 7-(4-bicyclo[4.2.0]octa-1,3,5-trienylmethyl)-N,2-dimethyl-5-oxo-thiazolo[3,2-a]pyrimidine-3-carboxamide], `C#Cc1cc(F)c(F)cc1Cc1cc(=O)n2c(C(=O)NC)c(C)sc2n1` [compound 37, 7-[(2-ethynyl-4,5-difluoro-phenyl)methyl]-N,2-dimethyl-5-oxo-thiazolo[3,2-a]pyrimidine-3-carboxamide] is 1.5-fold higher in EC50: 5.95 µM for the first, 9.02 µM for the second. The first is the more potent here.

First: CCNC(=O)c1c(C)sc2nc(Cc3cccc(C4(O)CC4)c3F)cc(=O)n12 [compound 33, N-ethyl-7-[[2-fluoro-3-(1-hydroxycyclopropyl)phenyl]methyl]-2-methyl-5-oxo-thiazolo[3,2-a]pyrimidine-3-carboxamide]
Second: CCNC(=O)c1c(C)sc2nc(Cc3cccc(C4(F)CC4)c3F)cc(=O)n12 [compound 35, N-ethyl-7-[[2-fluoro-3-(1-fluorocyclopropyl)phenyl]methyl]-2-methyl-5-oxo-thiazolo[3,2-a]pyrimidine-3-carboxamide]
The EC50 of the first is 1.6-fold higher: 6.43 µM for the first, 3.99 µM for the second.

Going from `Cc1sc2nc(Oc3cccc(C(F)(F)F)c3)c(F)c(=O)n2c1C1CC1CO` (stereo not drawn) [compound 34, 6-fluoro-3-[2-(hydroxymethyl)cyclopropyl]-2-methyl-7-[3-(trifluoromethyl)phenoxy]thiazolo[3,2-a]pyrimidin-5-one] to `Cc1sc2nc(Cc3cccc(C#N)c3F)cc(=O)n2c1C1CC1C(F)(F)F` (stereo not drawn) [compound 38, 2-fluoro-3-[[2-methyl-5-oxo-3-[2-(trifluoromethyl)cyclopropyl]thiazolo[3,2-a]pyrimidin-7-yl]methyl]benzonitrile], the EC50 falls from 24.5 µM to 0.533 µM (46-fold).

First: C=C(CF)c1cccc(Cc2cc(=O)n3c(C(=O)NCC)c(C)sc3n2)c1F [compound 36, N-ethyl-7-[[2-fluoro-3-[1-(fluoromethyl)vinyl]phenyl]methyl]-2-methyl-5-oxo-thiazolo[3,2-a]pyrimidine-3-carboxamide]
Second: CCNC(=O)c1c(C(F)(F)F)sc2nc(Cc3cccc(Cl)c3F)cc(=O)n12 [compound 50, 7-[(3-chloro-2-fluoro-phenyl)methyl]-N-ethyl-5-oxo-2-(trifluoromethyl)thiazolo[3,2-a]pyrimidine-3-carboxamide]
The EC50 of the first is 3.7-fold lower: 1.72 µM for the first, 6.4 µM for the second.

`Cc1sc2nc(Cc3cccc(C#N)c3F)cc(=O)n2c1C1CC1(F)F` (stereo not drawn) [compound 39, 3-[[3-(2,2-Difluorocyclopropyl)-2-methyl-5-oxo-thiazolo[3,2-a]pyrimidin-7-yl]methyl]-2-fluorobenzonitrile] and `CCNC(=O)c1c(C(F)(F)F)sc2nc(Cc3cccc(C#N)c3F)cc(=O)n12` [compound 41, 7-[(3-cyano-2-fluoro-phenyl)methyl]-N-ethyl-5-oxo-2-(trifluoromethyl)thiazolo[3,2-a]pyrimidine-3-carboxamide] are within 1.5-fold of each other in EC50: 6.1 µM for the first, 4.78 µM for the second.

Going from `CCNC(=O)c1c(C(F)(F)F)sc2nc(Cc3cccc(C(F)(F)F)c3F)cc(=O)n12` [compound 40, N-ethyl-7-[[2-fluoro-3-(trifluoromethyl)phenyl]methyl]-5-oxo-2-(trifluoromethyl)thiazolo[3,2-a]pyrimidine-3-carboxamide] to `Cc1sc2nc(Cc3cccc(C(F)(F)F)c3F)cc(=O)n2c1C(=O)NCC(F)(F)F` [compound 51, 7-[[2-fluoro-3-(trifluoromethyl)phenyl]methyl]-2-methyl-5-oxo-N-(2,2,2-trifluoroethyl)thiazolo[3,2-a]pyrimidine-3-carboxamide], the EC50 rises from 1.32 µM to 3.16 µM (2.4-fold).

Going from `CCNC(=O)c1c(C(F)(F)F)sc2nc(Cc3cccc(C(F)F)c3F)cc(=O)n12` [compound 42, 7-[[3-(difluoromethyl)-2-fluoro-phenyl]methyl]-N-ethyl-5-oxo-2-(trifluoromethyl)thiazolo[3,2-a]pyrimidine-3-carboxamide] to `CCNC(=O)c1c(C(F)(F)F)sc2nc(Cn3nc(C(F)(F)F)cc3Cl)cc(=O)n12` [compound 43, 7-[[5-chloro-3-(trifluoromethyl)pyrazol-1-yl]methyl]-N-ethyl-5-oxo-2-(trifluoromethyl)thiazolo[3,2-a]pyrimidine-3-carboxamide], the EC50 falls from 1.57 µM to 0.362 µM (4.3-fold). The second is the more potent here.

First: CCNC(=O)c1c(C(F)(F)F)sc2nc(Cn3nc(C(F)(F)F)cc3C)cc(=O)n12 [compound 45, N-ethyl-7-[[5-methyl-3-(trifluoromethyl)pyrazol-1-yl]methyl]-5-oxo-2-(trifluoromethyl)thiazolo[3,2-a]pyrimidine-3-carboxamide]
Second: CCNC(=O)c1c(C(F)(F)F)sc2nc(Cn3nc(C)cc3C(F)(F)F)cc(=O)n12 [compound 46, N-ethyl-7-[[3-methyl-5-(trifluoromethyl)pyrazol-1-yl]methyl]-5-oxo-2-(trifluoromethyl)thiazolo[3,2-a]pyrimidine-3-carboxamide]
The EC50 of the first is 5.6-fold lower: 1.25 µM for the first, 7.04 µM for the second. The first is the more potent here.

`Cc1sc2nc(Cc3cccc(C(F)(F)F)c3F)cc(=O)n2c1-c1ncc[nH]1` [compound 47, 7-[[2-fluoro-3-(trifluoromethyl)phenyl]methyl]-3-(1H-imidazol-2-yl)-2-methyl-thiazolo[3,2-a]pyrimidin-5-one] and `CCNC(=O)c1c(C)sc2nc(Oc3cccc(C(F)(F)F)c3F)cc(=O)n12` [compound 48, N-ethyl-7-[2-fluoro-3-(trifluoromethyl)phenoxy]-2-methyl-5-oxo-thiazolo[3,2-a]pyrimidine-3-carboxamide] are within 1.5-fold of each other in EC50: 5.14 µM for the first, 7.66 µM for the second.

Compared with `CCNC(=O)c1c(C)sc2nc(Cc3cc(C)cc(C#N)c3F)cc(=O)n12` [compound 49, 7-[(3-cyano-2-fluoro-5-methyl-phenyl)methyl]-N-ethyl-2-methyl-5-oxo-thiazolo[3,2-a]pyrimidine-3-carboxamide], `Cc1sc2nc(Cn3nc(C(F)(F)F)cc3C)cc(=O)n2c1C(=O)NCC(F)(F)F` [compound 52, 2-methyl-7-[[5-methyl-3-(trifluoromethyl)pyrazol-1-yl]methyl]-5-oxo-N-(2,2,2-trifluoroethyl)thiazolo[3,2-a]pyrimidine-3-carboxamide] is 2-fold lower in EC50: 17.5 µM for the first, 8.76 µM for the second. The second is the more potent here.
